Assay results reported in BindingDB's records for doi:10.1111/cbdd.12118 (Bombay College of Pharmacy, 2013).
pIC50: −log10 of the molar value.

Biological target: T1, Enoyl-acyl carrier reductase (Plasmodium falciparum, UniProt Q9BH77)
T1 sequence (Q9BH77 whole entry): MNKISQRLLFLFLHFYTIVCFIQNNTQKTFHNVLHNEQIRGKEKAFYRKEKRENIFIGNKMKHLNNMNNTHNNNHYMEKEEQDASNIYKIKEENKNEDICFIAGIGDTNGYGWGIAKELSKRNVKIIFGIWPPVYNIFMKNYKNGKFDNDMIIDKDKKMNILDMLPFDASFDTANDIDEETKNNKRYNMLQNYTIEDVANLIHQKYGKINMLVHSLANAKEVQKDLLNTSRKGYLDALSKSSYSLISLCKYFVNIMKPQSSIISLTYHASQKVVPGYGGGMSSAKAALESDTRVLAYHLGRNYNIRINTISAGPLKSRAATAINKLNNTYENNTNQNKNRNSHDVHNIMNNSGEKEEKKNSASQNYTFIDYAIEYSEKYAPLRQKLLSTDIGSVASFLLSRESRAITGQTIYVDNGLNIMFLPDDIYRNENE
Assay: Fabl Assay
Conditions: pH 7.4
Text: Inhibition assay using pfENR.

Row | pIC50 | Structure (SMILES)
1 | 4.05 | O=C(CNc1ccccc1)N/N=C/c1ccccc1Cl [Phenylaminoacetic acid benzylidene hydrazine analog, 1]
2 | < 3.80 | COc1ccc(/C=N/NC(=O)CNc2ccccc2)cc1OC [Phenylaminoacetic acid benzylidene hydrazine analog, 2]
3 | < 3.84 | COc1ccc(/C=N/NC(=O)CNc2ccc(Cl)cc2)cc1OC [Phenylaminoacetic acid benzylidene hydrazine analog, 3]
4 | 5.00 | O=C(CNc1ccc(Cl)cc1)N/N=C/c1ccccc1 [Phenylaminoacetic acid benzylidene hydrazine analog, 4]
5 | 4.92 | O=C(CNc1ccc(F)cc1)N/N=C/c1ccccc1O [Phenylaminoacetic acid benzylidene hydrazine analog, 6]
6 | 5.10 | CN(C)c1ccc(/C=N/NC(=O)CNc2ccc(F)cc2)cc1 [Phenylaminoacetic acid benzylidene hydrazine analog, 7]
7 | 3.71 | O=C(CNc1ccccc1)N/N=C/c1ccccc1 [Phenylaminoacetic acid benzylidene hydrazine analog, 8]
8 | 4.05 | O=C(CNc1ccccc1)N/N=C/c1cccc(Br)c1 [Phenylaminoacetic acid benzylidene hydrazine analog, 9]
9 | < 3.73 | O=C(CNc1ccccc1)N/N=C/c1ccccc1O [Phenylaminoacetic acid benzylidene hydrazine analog, 10]
10 | < 3.77 | CN(C)c1ccc(/C=N/NC(=O)CNc2ccccc2)cc1 [Phenylaminoacetic acid benzylidene hydrazine analog, 11]
11 | < 3.81 | O=C(CNc1cccc(F)c1Cl)N/N=C/c1ccccc1O [Phenylaminoacetic acid benzylidene hydrazine analog, 12]
12 | < 3.79 | O=C(CNc1cccc(F)c1Cl)N/N=C/c1ccccc1 [Phenylaminoacetic acid benzylidene hydrazine analog, 13]
13 | 4.54 | O=C(CNc1cccc(F)c1Cl)N/N=C/c1ccccc1Cl [Phenylaminoacetic acid benzylidene hydrazine analog, 14]
14 | < 3.89 | O=C(CNc1cccc(F)c1Cl)N/N=C/c1cccc(Br)c1 [Phenylaminoacetic acid benzylidene hydrazine analog, 15]
15 | < 3.79 | O=C(CNc1ccc(Cl)cc1)N/N=C/c1ccccc1O [Phenylaminoacetic acid benzylidene hydrazine analog, 16]
16 | 5.15 | O=C(CNc1ccc(Cl)cc1)N/N=C/c1cccc(Br)c1 [Phenylaminoacetic acid benzylidene hydrazine analog, 17]
17 | 3.79 | O=C(CNc1ccc(F)cc1)N/N=C/c1ccccc1Cl [Phenylaminoacetic acid benzylidene hydrazine analog, 18]
18 | 3.76 | O=C(CNc1cccc(Cl)c1)N/N=C/c1ccccc1 [Phenylaminoacetic acid benzylidene hydrazine analog, 19]
19 | 4.11 | O=C(CNc1cccc(Cl)c1)N/N=C/c1ccccc1Cl [Phenylaminoacetic acid benzylidene hydrazine analog, 20]
20 | 3.79 | O=C(CNc1cccc(Cl)c1)N/N=C/c1cccc(Br)c1 [Phenylaminoacetic acid benzylidene hydrazine analog, 21]
